{"source": "patent US20220049219A1", "about": "“AUTOMATED GENERATION AND ANALYSIS OF ORGANOIDS” (Max-Planck-Gesellschaft zur Förderung der Wissenschaften …, priority 2018, published 2022)", "tested_on": "automated midbrain organoids (AMOs)", "experiment": "3D toxicology assay: cCasp3/Sox2 whole mount immunostaining and high content imaging of G418-treated organoids", "format": "cell-based, human", "conditions": "AMOs treated for 4 days starting at day 50 of culture; 0-1000 μg/mL; cCasp3+ cells normalized by aggregate area", "protocol": "In order to analyze protein expression in 3D in a HTS-compatible manner, we adapted a whole mount staining protocol based on Lee et al. ACT-PRESTO: Rapid and consistent tissue 579 clearing and labeling method for 3-dimensional (3D) imaging. Sci Rep 6, 18631 (2016) for organoids and optimized it for use in an automated liquid handling system. After fixation with 4% PFA (VWR) for 10-15 minutes, we stained the organoids with primary and secondary antibodies (Alexa Fluor secondary antibodies, Thermo Fisher) for 6 days each. We diluted the antibodies in a blocking and permeabilization solution (6% BSA, 0.5% Triton-X 100 (Roth), 0.1% (w/v) sodium azide (Sigma-Aldrich) in PBS (Sigma-Aldrich)) and renewed it every 2 days. Between primary and secondary antibody incubation as well as after the staining procedure we washed the organoids 5 times for 1 h with 0.1% Triton X-100 in PBS. […]\nAfter staining and clearing, we achieved uniform aggregate positioning within the wells by tilting the plates off the horizontal plane at 60 degrees for 1 minute. Image acquisition was carried out in an Operetta high content imager (Perkin Elmer) and images were analyzed in Harmony 4.1 software. […] We excluded image artifacts, small dust particles, and overlapping nuclei by omitting nuclei brighter than 6000 abu and larger than 70 μm2 from further quantification. […]", "data": [{"smiles": "CN[C@@H]1[C@@H](O)[C@@H](O[C@@H]2[C@@H](O)[C@H](O[C@H]3O[C@H]([C@@H](C)O)[C@@H](O)[C@H](O)[C@H]3N)[C@@H](N)C[C@H]2N)OC[C@]1(C)O", "note": "[G418]", "values": [{"measurement": "IC50 from dose-response curve of number of apoptotic cCasp3+ cells against logarithmic drug concentration", "value": 339, "unit": "μg/mL"}]}]}
